Legend:
AR = molecular target: T1, AR (Rattus norvegicus, UniProt P15207)
T1 sequence (P15207 1-902): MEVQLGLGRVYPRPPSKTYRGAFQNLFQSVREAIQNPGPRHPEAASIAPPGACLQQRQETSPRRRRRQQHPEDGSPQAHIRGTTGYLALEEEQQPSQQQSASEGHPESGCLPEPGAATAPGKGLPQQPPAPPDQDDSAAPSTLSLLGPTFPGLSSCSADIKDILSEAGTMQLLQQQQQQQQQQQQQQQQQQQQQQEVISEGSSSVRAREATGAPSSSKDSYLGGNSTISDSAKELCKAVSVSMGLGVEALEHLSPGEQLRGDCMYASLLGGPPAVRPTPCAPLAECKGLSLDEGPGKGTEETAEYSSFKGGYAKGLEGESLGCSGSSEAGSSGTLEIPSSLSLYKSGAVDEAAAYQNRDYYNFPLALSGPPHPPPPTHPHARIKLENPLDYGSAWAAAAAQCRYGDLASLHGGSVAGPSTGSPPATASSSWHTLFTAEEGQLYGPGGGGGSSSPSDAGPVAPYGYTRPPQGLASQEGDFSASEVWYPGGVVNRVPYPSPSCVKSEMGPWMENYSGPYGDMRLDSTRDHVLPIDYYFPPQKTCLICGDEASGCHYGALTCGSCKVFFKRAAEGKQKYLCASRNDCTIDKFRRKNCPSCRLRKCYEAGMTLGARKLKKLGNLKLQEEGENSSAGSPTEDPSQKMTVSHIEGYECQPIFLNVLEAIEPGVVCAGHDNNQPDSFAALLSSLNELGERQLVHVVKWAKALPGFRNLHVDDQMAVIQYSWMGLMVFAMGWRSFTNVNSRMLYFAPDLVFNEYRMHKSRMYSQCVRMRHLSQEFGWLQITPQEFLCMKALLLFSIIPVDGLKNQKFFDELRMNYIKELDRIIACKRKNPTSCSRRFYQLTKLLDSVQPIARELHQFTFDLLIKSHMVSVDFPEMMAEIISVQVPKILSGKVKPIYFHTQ
Description: Biol. Med., 83, 175 (1953); B. L. Beyler et al, “Methods for evaluating anabolic and catabolic agents in laboratory animals”, J. Amer. Med. Women's Ass., 23, 708 (1968); H. Fukuda et al., “Investigations of the levator ani muscle as an anabolic steroid assay”, Nago Dai. Yak. Ken. Nem. 14, 84 (1966) the disclosures of which are herein incorporated by reference.
The basis of this assay lies in the well-defined action of androgenic agents on the maintenance and growth of muscle tissues and sexual accessory organs in animals and man. […] J. Anat. […] Ital. Biol. Sper. […] II. […] Ital. Biol. Sper. 42, 1600 (1966); A. Boris et al., Steroids 15, 61 (1970). As described above, the effects of androgens on maintenance of male sexual accessory organs, such as the prostate and seminal vesicles, is well described. Castration results in rapid involution and atrophy of the prostate and seminal vesicles. This effect can be reversed by exogenous addition of androgens. Since both the levator ani muscle and the male sex organs are the tissues most responsive to the effects of androgenic agents, this model is used to determine the androgen dependent reversal of atrophy in the levator ani muscle and the sex accessory organs in immature castrated rats. Sexually mature rats (200-250 g, 6-8 weeks-old, Sprague-Dawley, Harlan) were acquired castrated from the vendor […]. […]

glucocorticoid receptor = glucocorticoid receptor (Homo sapiens, UniProt P04150); assay: cell-based; conditions: A549, read-out: % inhibition of the reporter system as compared to the buffer control with 10 ng/mL PMA alone
Protocol: The AP-1 assay is a cell-based luciferase reporter assay. A549 cells, which contain endogenous glucocorticoid receptor, were stably transfected with an AP-1 DNA binding site attached to the luciferase gene. Cells are then grown in RPMI+10% fetal calf serum (charcoal-treated)+Penicillin/Streptomycin with 0.5 mg/mL geneticin. Cells are plated the day before the assay at approximately 40000 cells/well. On assay day, the media is removed by aspiration and 20 μL assay buffer (RPMI without phenol red+10% FCS (charcoal-treated)+Pen/Strep) is added to each well. At this point either 20 μL assay buffer (control experiments), the compounds of the present invention (“test compounds”) (dissolved in DMSO and added at varying concentrations) or dexamethasome (100 nM in DMSO, positive control) are added to each well. The plates are then pre-incubated for 15 min at 37° C., followed by stimulation of the cells with 10 ng/mL PMA. The plates are then incubated for 7 h at 37° C. after which 40 μL luciferase substrate reagent is added to each well. Activity is measured by analysis in a luminometer as compared to control experiments treated with buffer or dexamethasome.

[1] = system: wild type AR (MDA 453 cells); conditions: read-out: Kd for [3H]-DHT, Scatchard analysis, 4 h at 37° C.
Protocol: For the whole-cell binding assay, human LNCaP cells (T877A mutant AR) or MDA 453 (wild type AR) in 96-well microtiter plates containing RPMI 1640 or DMEM supplemented with 10% charcoal stripped CA-FBS (Cocaleco Biologicals) respectively, were incubated at 37° C. to remove any endogenous ligand that might be complexed with the receptor in the cells.
For the saturation analysis, the difference between the total binding and the non-specific binding, was defined as specific binding. […] See e.g. D. Rodbard, Mathematics and statistics of ligand assays: an illustrated guide: In: J. Langon and J. J. Clapp, eds., Ligand Assay, Masson Publishing U.S.A., Inc., New York, pp. 45-99, (1981), the disclosure of which is herein incorporated by reference.
Two replicates were used for each sample. […] After correcting for non-specific binding, IC50 values were determined. […] C2C12 Mouse Myoblast Transactivation Assay

Chain of glucocorticoid receptor (P04150 whole entry): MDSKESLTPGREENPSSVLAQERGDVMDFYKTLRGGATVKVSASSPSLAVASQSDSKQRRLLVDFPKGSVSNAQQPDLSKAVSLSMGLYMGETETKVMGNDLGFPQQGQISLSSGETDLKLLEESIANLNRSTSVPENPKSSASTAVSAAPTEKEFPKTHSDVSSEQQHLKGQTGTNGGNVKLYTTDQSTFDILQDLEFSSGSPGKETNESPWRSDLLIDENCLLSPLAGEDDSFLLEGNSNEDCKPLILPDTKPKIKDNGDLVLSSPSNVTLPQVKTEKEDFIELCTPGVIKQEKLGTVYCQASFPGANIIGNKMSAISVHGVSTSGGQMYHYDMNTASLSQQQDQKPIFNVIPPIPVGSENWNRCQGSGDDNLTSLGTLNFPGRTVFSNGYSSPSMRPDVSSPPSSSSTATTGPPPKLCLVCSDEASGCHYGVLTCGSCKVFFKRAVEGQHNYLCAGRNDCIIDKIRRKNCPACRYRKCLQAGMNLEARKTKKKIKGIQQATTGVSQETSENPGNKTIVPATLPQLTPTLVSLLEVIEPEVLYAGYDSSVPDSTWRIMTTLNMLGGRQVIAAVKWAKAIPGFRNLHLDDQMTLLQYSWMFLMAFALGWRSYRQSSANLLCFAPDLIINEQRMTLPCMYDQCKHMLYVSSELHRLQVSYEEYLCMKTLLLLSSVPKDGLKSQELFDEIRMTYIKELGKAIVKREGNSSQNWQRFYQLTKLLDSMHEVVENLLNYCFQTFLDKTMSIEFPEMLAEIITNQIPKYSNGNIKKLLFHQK

For `CCC(=O)O[C@H]1CC[C@H]2[C@@H]3CCC4=CC(=O)CC[C@]4(C)[C@H]3CC[C@]12C` [TP, testosterone propionate], the “EC50 (increase in organ weight)” value (AR; castrated rats, organ weight) was about 0.03 mg and the “potency relative to free T” value (AR; higher potency than free T) was 10-30 fold.
`C[C@@H]1C[C@H]2[C@@H]3CCC4=CC(=O)C=C[C@]4(C)[C@@]3(F)[C@@H](O)C[C@]2(C)[C@@]1(O)C(=O)CO` [dexamethasone] was tested, and the inhibition at 10 µM (glucocorticoid receptor) was 65%.
Work on “tritiated dihydrotestosterone [[^3H]-DHT]” yielded a Kd [1] of 700 pM.

From patent US20050182105A1 (priority 2004, published 2005)
